IC50, AUC(0-t) and bioavailability data for 15 compounds are collected here from patent US11780821B2, “Inhibitors of fibroblast activation protein” (Praxis Biotech LLC, priority 2017, dated 2023).

In one data set the target is T1, mouse plasma DPPIV (Mus musculus, UniProt P28843).
T1 construct: from tissue; host or cells: mouse plasma (C57BL/6, EDTA)
Nature of the data set: DPPIV enzymatic activity in mouse plasma. The data set is classed as biochemical. The following applies: C57BL/6 mouse plasma; H-Gly-Pro-AMC substrate. Put shortly: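 C57BL/6 mouse EDTA plasma, diluted in pH 7.5 Tris/NaCl/salicylic acid/EDTA buffer, preincubated 15 min at 37° C with compound or DMSO. H-Gly-Pro-AMC substrate added (200 μM solution, before mixing), reaction 1 h at 37° C; AMC fluorescence read at Ex 360/Em 460 nm, at least duplicate.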

For data set [1], the target named is T2, circulating FAPα from human plasma (Homo sapiens, UniProt Q12884).
T2 construct: from tissue; host or cells: human plasma (EDTA-K2)
T2 sequence (Q12884 24-760 limits assumed): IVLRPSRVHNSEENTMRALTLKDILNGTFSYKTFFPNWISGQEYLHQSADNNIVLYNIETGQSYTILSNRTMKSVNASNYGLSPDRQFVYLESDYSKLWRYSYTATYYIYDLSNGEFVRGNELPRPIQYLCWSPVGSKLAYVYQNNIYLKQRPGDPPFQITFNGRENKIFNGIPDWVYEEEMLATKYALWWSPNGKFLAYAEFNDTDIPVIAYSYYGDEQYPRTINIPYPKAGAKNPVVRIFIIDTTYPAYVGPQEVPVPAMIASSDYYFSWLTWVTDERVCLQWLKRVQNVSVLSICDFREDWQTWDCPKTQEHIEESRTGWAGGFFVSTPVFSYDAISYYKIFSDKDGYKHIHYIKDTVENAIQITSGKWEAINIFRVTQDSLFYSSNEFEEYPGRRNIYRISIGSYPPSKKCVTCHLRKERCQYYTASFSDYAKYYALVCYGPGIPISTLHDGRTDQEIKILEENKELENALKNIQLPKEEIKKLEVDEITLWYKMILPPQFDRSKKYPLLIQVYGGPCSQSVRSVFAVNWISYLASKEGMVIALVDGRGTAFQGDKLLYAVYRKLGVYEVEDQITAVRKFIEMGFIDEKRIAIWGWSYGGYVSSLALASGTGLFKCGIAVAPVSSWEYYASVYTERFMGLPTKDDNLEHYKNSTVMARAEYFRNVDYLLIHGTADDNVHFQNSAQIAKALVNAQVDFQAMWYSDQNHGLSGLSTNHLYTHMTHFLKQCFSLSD
The experiment in a line: Ex vivo inhibition of circulating FAPα activity from human plasma. The data set is classed as biochemical. How it is done: Human blood was obtained from healthy young volunteers. Blood samples were collected in tubes coated with EDTA-K2 by venipuncture method, mixed gently, then kept on ice and centrifuged at 2,500×g for 15 minutes at 4° C. After plasma separation, samples were stored at −80° C. in aliquots of 300 μL. […] Exemplary compounds were allowed to interact with the enzyme for 15 minutes at 37° C. After pre-incubation, 50 μl of 200 μM PRXS-AMC substrate were added to the all mixtures. All reactions were carried out for 1 h at 37° C. protected from light. AMC release was detected measuring fluorescence at an excitation/emission wavelength of 380/460 nm using a Multifunction Microplate Reader. All measurements were carried out as single point.

Data set [2] in a line: Intravenous and oral bioavailability in mice. The class given is in vivo. As to conditions: mouse; for AUC(0-t): oral (PO) 10 mg/kg single dose; for bioavailability: PO 10 mg/kg vs IV 2 mg/kg, read-out: F (bioavailability). How it is done:
The pharmacokinetic properties of exemplary test compounds were assayed after administration of an intravenous (IV) 2 mg/kg or oral (PO) 10 mg/kg single dose in mice. Exemplary test compounds were formulated at 0.4 and 1 mg/ml in a vehicle containing Poly-Ethylene Glycol 200 (PEG200; Cat. No. #P3015, Sigma Aldrich) and distilled water (dH2O) (50/50, v/v) as dosing solutions for intravenous and oral administration, respectively.
C57BL/6j and Balb/c mice, approximately 8-10 weeks old, were obtained from the vivarium Fundación Ciencia & Vida Chile (Santiago, Chile) and maintained in a temperature-controlled room with 12/12 hr light/dark schedule with food and water ad libitum. Animals were acclimated for a minimum period of 4 days upon arrival at the testing facility.
On the day of study, mice were weighed and identified by marking the tail with numbers using a non-toxic permanent marker for designation into the experimental groups (n=3 per group). Each mouse in the IV dosing groups received a systemic bolus of 2 mg/kg dosing solution via the caudal vein.
Non-dosed mice were used to collect samples of zero time points. […] Blood samples were centrifuged immediately at 9,000 g at 4° C. for 5 min and the plasma was separated.
The plasma samples were analyzed by QTRAP 4500 triple quadrupole mass spectrometer (Applied Biosystems SCIEX) in positive or negative ion mode depending on the tested compound and interfaced with an ekspert ultraLC 100-XL UPLC System (eksigent) to determine the concentration of the exemplary test compound. […] The precipitated samples were centrifuged at 6,100 g for 30 min at 4° C. Following centrifugation, an aliquot of each supernatant was transferred into a clean sample vial and diluted with two volumes of aqueous mobile phase (0.2% formic acid in water). Samples were injected onto a reverse phase analytical column (YMC Triart C18; 2.0×50 mm; 1.9 μm; YMC CO) and eluted with a gradient of 0.1 or 0.2% formic acid in Acetonitrile. Test compound and internal standard were monitored by a multiple reaction monitoring (MRM) experiment using Analyst software (v1.6.2, Applied Biosystems SCIEX). Quantitation was conducted using MultiQuant software (v2.1, Applied Biosystems SCIEX) and the resulting calibration curve was fitted with a linear or quadratic regression and 1/x weighting.
IV and PO PK parameters were calculated from the concentration-time data using Phoenix WinNonlin software (v6.4, Certara, Princeton, N.J.) by noncompartmental analysis. Area under the concentration-time curve (AUClast) was estimated using a log-linear trapezoidal method, from the dosing time to the last measurable concentration.

Setting [3] is: human plasma, PRXS-AMC substrate, read-out: FAPα activity in human plasma (PRXS-AMC) IC50.

Structures are written as SMILES. Where two headings read alike, the source gives them in different places. A value given as a limit tells only on which side of the number the result lay.

T1 sequence (P28843 37-760 limits assumed): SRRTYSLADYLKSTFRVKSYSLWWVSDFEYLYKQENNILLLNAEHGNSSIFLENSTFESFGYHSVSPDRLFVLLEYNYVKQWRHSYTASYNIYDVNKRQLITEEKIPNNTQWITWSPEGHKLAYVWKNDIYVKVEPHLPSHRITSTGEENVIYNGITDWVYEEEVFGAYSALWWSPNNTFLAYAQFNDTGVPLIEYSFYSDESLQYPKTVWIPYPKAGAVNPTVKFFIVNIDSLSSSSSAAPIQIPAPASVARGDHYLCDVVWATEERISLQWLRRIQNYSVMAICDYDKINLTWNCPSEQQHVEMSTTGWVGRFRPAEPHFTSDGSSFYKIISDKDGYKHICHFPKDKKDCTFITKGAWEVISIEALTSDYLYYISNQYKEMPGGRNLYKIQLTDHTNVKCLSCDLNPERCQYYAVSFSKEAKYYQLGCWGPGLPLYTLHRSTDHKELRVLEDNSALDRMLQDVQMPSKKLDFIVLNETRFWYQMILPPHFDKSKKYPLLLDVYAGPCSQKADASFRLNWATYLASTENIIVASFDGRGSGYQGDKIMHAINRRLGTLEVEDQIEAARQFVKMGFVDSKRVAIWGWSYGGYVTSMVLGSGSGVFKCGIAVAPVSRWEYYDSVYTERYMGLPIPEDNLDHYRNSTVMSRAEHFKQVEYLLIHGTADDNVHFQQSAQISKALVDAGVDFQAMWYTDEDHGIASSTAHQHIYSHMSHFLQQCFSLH

Take `N#C[C@@H]1CC(F)(F)CN1C(=O)CNC(=O)c1ccncc1-c1ccccc1` [Compound 13, (S)—N-(2-(2-cyano-4,4-difluoropyrrolidin-1-yl)-2-oxoethyl)-3-phenylisonicotinamide]: at mouse plasma DPPIV, the IC50 is greater than 10 µM. Moreover, in data set [1] (setting [3]), the 50% inhibitory concentration (IC50) was less than 1 µM. Also, in data set [2] (plasma), the AUC(0-t) amounted to 760 ng·h/mL and the bioavailability was determined as 27.9%.

As for `N#C[C@@H]1CC(F)(F)CN1C(=O)CNC(=O)c1c[nH]c(=O)c(-c2ccccc2)c1` [Compound 14, (S)—N-(2-(2-cyano-4,4-difluoropyrrolidin-1-yl)-2-oxoethyl)-6-oxo-5-phenyl-1,6-dihydropyridine-3-carboxamide], the figures for the IC50 (on mouse plasma DPPIV; in data set [1] (setting [3])) were 1 to 10 µM and less than 1 µM, respectively.

`N#C[C@@H]1CC(F)(F)CN1C(=O)CNC(=O)c1ccncc1C1CC1` [Compound 24, (S)—N-(2-(2-cyano-4,4-difluoropyrrolidin-1-yl)-2-oxoethyl)-3-cyclopropylisonicotinamide]: the IC50 on mouse plasma DPPIV is greater than 10 µM. Moreover, the IC50 in data set [1] (setting [3]) was less than 1 µM. In data set [2] (plasma), the AUC(0-t) came to 910 ng·h/mL and the bioavailability is 54%.

As to `N#C[C@@H]1CC(F)(F)CN1C(=O)CNC(=O)c1c[nH]c(=O)c2ccc(F)cc12` [Compound 26, (S)—N-(2-(2-cyano-4,4-difluoropyrrolidin-1-yl)-2-oxoethyl)-6-fluoro-1-oxo-1,2-dihydroisoquinoline-4-carboxamide], the IC50 (at mouse plasma DPPIV; in data set [1] (setting [3])) was less than 1 µM each time.

Take `C=Cc1cnccc1C(=O)NCC(=O)N1CC(F)(F)C[C@H]1C#N` [Compound 40, (S)—N-(2-(2-cyano-4,4-difluoropyrrolidin-1-yl)-2-oxoethyl)-3-vinylisonicotinamide]: the IC50 on mouse plasma DPPIV is greater than 10 µM; in data set [1] (setting [3]) it was less than 1 µM.

Turning to `N#C[C@@H]1CC(F)(F)CN1C(=O)CNC(=O)c1ccncc1-c1cc(F)cc(F)c1` [Compound 47, (S)—N-(2-(2-cyano-4,4-difluoropyrrolidin-1-yl)-2-oxoethyl)-3-(3,5-difluorophenyl)isonicotinamide], the IC50 at mouse plasma DPPIV is greater than 10 µM; in data set [1], less than 1 µM.

`N#C[C@@H]1CC(F)(F)CN1C(=O)CNC(=O)c1ccncc1Cc1ccccc1` [Compound 50, (S)-3-benzyl-N-(2-(2-cyano-4,4-difluoropyrrolidin-1-yl)-2-oxoethyl)isonicotinamide]: in data set [1] (setting [3]), the IC50 is less than 1 µM. For the same compound, in data set [2] (plasma), the exposure AUC(0-t) turned out to be 1090 ng·h/mL and the bioavailability worked out at 79.6%.

Turning to `N#C[C@@H]1CC(F)(F)CN1C(=O)CNC(=O)c1ccncc1-c1ccc(F)cc1` [Compound 52, (S)—N-(2-(2-cyano-4,4-difluoropyrrolidin-1-yl)-2-oxoethyl)-3-(4-fluorophenyl)isonicotinamide], the IC50 at mouse plasma DPPIV was greater than 10 µM. Besides, the IC50 in data set [1] (setting [3]) is less than 1 µM. In addition, in data set [2] (plasma), the AUC(0-t) turned out to be 721 ng·h/mL and the bioavailability worked out at 30.3%.

`N#C[C@@H]1CC(F)(F)CN1C(=O)CNC(=O)c1ccncc1-c1cc(Cl)ccc1F` [Compound 54, (S)-3-(5-chloro-2-fluorophenyl)-N-(2-(2-cyano-4,4-difluoropyrrolidin-1-yl)-2-oxoethyl)isonicotinamide]: the IC50 on mouse plasma DPPIV was greater than 10 µM; in data set [1] (setting [3]), less than 1 µM.

Turning to `Cn1ncc2c(-c3cnccc3C(=O)NCC(=O)N3CC(F)(F)C[C@H]3C#N)cccc21` [Compound 87, (S)—N-(2-(2-cyano-4,4-difluoropyrrolidin-1-yl)-2-oxoethyl)-3-(1-methyl-1H-indazol-4-yl)isonicotinamide], the IC50 was 1 to 10 µM at mouse plasma DPPIV and less than 1 µM in data set [1] (setting [3]).

For the compound `N#C[C@@H]1CC(F)(F)CN1C(=O)CNC(=O)c1ccncc1N1CCOCC1` [Compound 88, N-[2-[(2S)-2-cyano-4,4-difluoro-pyrrolidin-1-yl]-2-oxo-ethyl]-3-morpholino-pyridine-4-carboxamide], the concentration for half-maximal inhibition (IC50) is 1 to 10 µM on mouse plasma DPPIV and less than 1 µM in data set [1] (setting [3]).

`N#C[C@@H]1CC(F)(F)CN1C(=O)CNC(=O)c1ccncc1C1=CCNCC1` [Compound 105, (S)—N-(2-(2-cyano-4,4-difluoropyrrolidin-1-yl)-2-oxoethyl)-1′,2′,3′,6′-tetrahydro-[3,4′-bipyridine]-4-carboxamide 2,2,2-trifluoroacetate]: the 50% inhibitory concentration (IC50) is greater than 10 µM at mouse plasma DPPIV and less than 1 µM in data set [1] (setting [3]). Moreover, the bioavailability in data set [2] (in vivo) was 3%. Also, the AUC(0-t) in data set [2] (in vivo, plasma) was 18.3 ng·h/mL.

As to `N#C[C@@H]1CC(F)(F)CN1C(=O)CNC(=O)c1c[nH]c(=O)cc1-c1ccc(F)cc1` [Compound 109, (S)—N-(2-(2-cyano-4,4-difluoropyrrolidin-1-yl)-2-oxoethyl)-4-(4-fluorophenyl)-6-oxo-1,6-dihydropyridine-3-carboxamide], the concentration for half-maximal inhibition (IC50) is 1 to 10 µM at mouse plasma DPPIV and less than 1 µM in data set [1] (setting [3]). Moreover, in data set [2] (plasma), the AUC(0-t) was 2140 ng·h/mL. For the same compound, the bioavailability in data set [2] (plasma) is 9%.

As for `C=C(c1ccccc1)c1cnccc1C(=O)NCC(=O)N1CC(F)(F)C[C@H]1C#N` [Compound 122, (S)—N-(2-(2-cyano-4,4-difluoropyrrolidin-1-yl)-2-oxoethyl)-3-(1-phenylvinyl)isonicotinamide], at mouse plasma DPPIV, the 50% inhibitory concentration (IC50) was greater than 10 µM.

For `N#C[C@@H]1CC(F)(F)CN1C(=O)CNC(=O)c1c[nH]c(=O)c2ccccc12` [Example 1, (S)—N-(2-(2-cyano-4,4-difluoropyrrolidin-1-yl)-2-oxoethyl)-1-oxo-1,2-dihydroisoquinoline-4-carboxamide], on mouse plasma DPPIV, the IC50 is less than 1 µM. The IC50 in data set [1] (setting [3]) was less than 1 µM. In addition, in data set [2] (plasma), the AUC(0-t) was 327 ng·h/mL and the bioavailability worked out at 6.3%.

A word on the IC50: it is the midpoint of a concentration-inhibition curve. The AUC(0-t) is the area under the concentration-time curve up to a stated or last time point. High values mean more exposure, low ones less exposure. A word on the bioavailability: it is the share of a dose that reaches the circulation, judged against a reference dose that is usually intravenous.
